This note sets out measurements from publication PMC2217215 (The Journal of General Physiology, 2000).

The test system of the experiment is mitochondrial Na+/Ca2+ exchanger. Kind of experiment: fura-2 [Ca2+]i plateau after depolarization in intact neurons. The class given is cell-based, Aquarana catesbeiana.

By IC50 is commonly meant the concentration that gives 50% inhibition. A lower IC50 goes with higher potency.

Take `O=C1CSC(c2ccccc2Cl)c2cc(Cl)ccc2N1` (stereo not shown) [CGP, CGP 37157]: the IC50 is ~560 nM.
